Blank lines part the entries; values can stand above or below the compound they belong to.
What was measured:
[1] = biological target: Cyclin-dependent kinase 2 (Homo sapiens, UniProt P24941); experiment: Inhibition of CDK2 (unknown origin)
COLO 205 [2] = experiment: Antiproliferative activity against human COLO 205 cells assessed as reduction in cell viability for 72 hrs by cell titre glo luminescence assay; format: functional, cell-based
[3] = biological target: Glycogen synthase kinase-3 beta (Homo sapiens, UniProt P49841); experiment: Inhibition of GSK3beta (unknown origin)
Glycogen synthase kinase-3 beta, sequence (P49841 whole entry): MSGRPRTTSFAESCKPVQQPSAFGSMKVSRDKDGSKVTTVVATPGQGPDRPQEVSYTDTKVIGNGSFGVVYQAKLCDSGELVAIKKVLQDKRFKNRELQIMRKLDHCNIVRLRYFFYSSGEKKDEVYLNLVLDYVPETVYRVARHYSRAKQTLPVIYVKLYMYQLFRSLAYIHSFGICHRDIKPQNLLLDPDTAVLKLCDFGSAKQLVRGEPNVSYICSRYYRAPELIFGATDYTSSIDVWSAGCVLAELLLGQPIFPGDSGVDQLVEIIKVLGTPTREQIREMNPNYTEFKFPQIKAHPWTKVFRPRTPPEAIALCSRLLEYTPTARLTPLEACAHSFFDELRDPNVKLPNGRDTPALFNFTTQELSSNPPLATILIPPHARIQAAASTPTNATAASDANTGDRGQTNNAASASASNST

[4] = Plasma protein binding in human; format: ADME, cell-free; conditions: read-out: PPB (converted)
[5] = Cmax in Sprague-Dawley rat plasma at 1 mg/kg, iv and measured after 24 hrs by LC/MS/MS analysis; format: ADME, organism-based; set-up: route intravenous, dose 1 mg/kg, time 24 hrs
[6] = Cmax in Beagle dog plasma at 0.5 mg/kg, iv and measured after 24 hrs by LC/MS/MS analysis; format: ADME, organism-based, Canis lupus familiaris; set-up: route intravenous, time 24 hrs, dose 0.5 mg/kg
[7] = AUC (0 to t) in ICR mouse at 2 mg/kg, po; format: ADME, organism-based; set-up: dose 2 mg/kg; conditions: in vivo
[8] = AUC (0 to t) in Sprague-Dawley rat at 2 mg/kg, po; format: ADME, organism-based; set-up: dose 2 mg/kg; conditions: in vivo
[9] = AUC (0 to t) in Beagle dog at 2 mg/kg, po; format: ADME, organism-based, Canis lupus familiaris; set-up: dose 2 mg/kg; conditions: in vivo
[10] = Half life in Sprague-Dawley rat at 2 mg/kg, po; conditions: in vivo
[11] = Half life in Beagle dog at 2 mg/kg, po; conditions: in vivo
[12] = Clearance in ICR mouse plasma at 1 mg/kg, iv and measured after 24 hrs by LC/MS/MS analysis mg/kg, iv; format: ADME, organism-based
[13] = Clearance in Sprague-Dawley rat plasma at 1 mg/kg, iv and measured after 24 hrs by LC/MS/MS analysis; format: ADME, organism-based
[14] = Clearance in Beagle dog plasma at 0.5 mg/kg, iv and measured after 24 hrs by LC/MS/MS analysis; format: ADME, organism-based, Canis lupus familiaris
[15] = Oral bioavailability in ICR mouse at 2 mg/kg; format: ADME, organism-based; conditions: in vivo
[16] = Oral bioavailability in Sprague-Dawley rat at 2 mg/kg; format: ADME, organism-based; conditions: in vivo
[17] = Oral bioavailability in Beagle dog at 2 mg/kg; format: ADME, organism-based, Canis lupus familiaris; conditions: in vivo
[18] = Cmax in plasma of BALB/c mouse xenografted with human COLO 205 cells at 25 mg/kg, po for 14 days; format: ADME, organism-based; set-up: route oral, dose 25 mg/kg, time 14 day
[19] = AUC in plasma of BALB/c mouse xenografted with human COLO 205 cells at 25 mg/kg, po for 14 days; format: ADME, organism-based; set-up: time 14 day, dose 25 mg/kg
[20] = Cmax in tumor of BALB/c mouse xenografted with human COLO 205 cells at 25 mg/kg, po for 14 days; format: ADME, organism-based, Neoplasm; set-up: route oral, dose 25 mg/kg, time 14 day
[21] = AUC in tumor of BALB/c mouse xenografted with human COLO 205 cells at 25 mg/kg, po for 14 days; format: ADME, organism-based, Neoplasm; set-up: time 14 day, dose 25 mg/kg
COLO 205 [22] = experiment: Antitumor activity against human COLO 205 cells xenografted in BALB/c nude mouse assessed as TGI at 25 mg/kg, po measured after 14 days; format: functional; conditions: COLO 205, po, 336 h, time 14 day, read-out: TGI
in vivo = conditions: BALB/c, mouse, tumour, po, 25 mg/kg
Description: Ratio of AUC in tumor to plasma of BALB/c mouse xenografted with human COLO 205 cells at 25 mg/kg, po for 14 days

Cytochrome P450 1A2 = biological target: T1, Cytochrome P450 1A2 (Homo sapiens, UniProt P05177); experiment: Inhibition of CYP1A2 in human liver microsomes
T1 sequence (P05177 whole entry): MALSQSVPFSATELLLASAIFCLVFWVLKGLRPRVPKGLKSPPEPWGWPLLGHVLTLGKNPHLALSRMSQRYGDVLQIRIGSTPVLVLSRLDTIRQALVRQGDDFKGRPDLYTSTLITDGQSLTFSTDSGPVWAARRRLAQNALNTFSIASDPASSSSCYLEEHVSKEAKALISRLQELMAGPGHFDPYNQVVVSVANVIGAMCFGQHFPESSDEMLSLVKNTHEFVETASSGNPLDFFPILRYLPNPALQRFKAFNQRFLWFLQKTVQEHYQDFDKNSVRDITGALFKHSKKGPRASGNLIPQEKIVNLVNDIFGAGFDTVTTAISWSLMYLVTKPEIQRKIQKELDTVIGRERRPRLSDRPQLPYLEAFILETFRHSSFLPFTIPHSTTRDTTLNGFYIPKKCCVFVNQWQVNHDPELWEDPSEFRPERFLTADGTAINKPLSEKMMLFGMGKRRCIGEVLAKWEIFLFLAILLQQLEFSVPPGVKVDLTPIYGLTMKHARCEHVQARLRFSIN

Cytochrome P450 2D6 = Cytochrome P450 2D6 (Homo sapiens, UniProt P10635); experiment: Inhibition of CYP2D6 in human liver microsomes
Cytochrome P450 2D6, sequence (P10635 whole entry): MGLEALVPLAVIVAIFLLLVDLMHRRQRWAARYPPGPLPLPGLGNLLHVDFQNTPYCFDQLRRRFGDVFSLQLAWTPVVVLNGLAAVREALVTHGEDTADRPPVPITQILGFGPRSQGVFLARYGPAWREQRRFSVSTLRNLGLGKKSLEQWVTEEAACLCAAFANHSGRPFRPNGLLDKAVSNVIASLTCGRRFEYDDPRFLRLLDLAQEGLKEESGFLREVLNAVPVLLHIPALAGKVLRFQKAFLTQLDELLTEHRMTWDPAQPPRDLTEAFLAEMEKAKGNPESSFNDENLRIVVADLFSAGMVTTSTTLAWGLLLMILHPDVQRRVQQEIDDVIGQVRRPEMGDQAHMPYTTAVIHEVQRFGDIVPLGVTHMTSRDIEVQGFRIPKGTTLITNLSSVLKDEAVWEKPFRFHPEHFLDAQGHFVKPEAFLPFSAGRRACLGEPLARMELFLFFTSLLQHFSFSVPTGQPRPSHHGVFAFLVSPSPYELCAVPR

Cytochrome P450 3A4 = Cytochrome P450 3A4 (Homo sapiens, UniProt P08684); experiment: Inhibition of CYP3A4 in human liver microsomes
Cytochrome P450 3A4, sequence (P08684 whole entry): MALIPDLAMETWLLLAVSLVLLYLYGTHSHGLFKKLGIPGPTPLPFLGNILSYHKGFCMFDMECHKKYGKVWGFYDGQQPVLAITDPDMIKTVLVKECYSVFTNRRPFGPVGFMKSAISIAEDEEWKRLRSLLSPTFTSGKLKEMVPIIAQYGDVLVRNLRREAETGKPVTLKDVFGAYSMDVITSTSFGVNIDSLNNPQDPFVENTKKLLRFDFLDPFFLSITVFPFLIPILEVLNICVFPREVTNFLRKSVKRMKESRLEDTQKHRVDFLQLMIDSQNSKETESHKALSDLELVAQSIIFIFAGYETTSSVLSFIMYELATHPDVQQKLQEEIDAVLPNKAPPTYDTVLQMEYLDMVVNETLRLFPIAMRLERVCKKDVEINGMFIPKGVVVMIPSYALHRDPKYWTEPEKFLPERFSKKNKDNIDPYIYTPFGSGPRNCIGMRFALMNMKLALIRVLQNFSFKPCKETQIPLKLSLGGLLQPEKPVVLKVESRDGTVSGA

Cytochrome P450 2C19 = Cytochrome P450 2C19 (Homo sapiens, UniProt P33261); experiment: Inhibition of CYP2C19 in human liver microsomes
Cytochrome P450 2C19, sequence (P33261 whole entry): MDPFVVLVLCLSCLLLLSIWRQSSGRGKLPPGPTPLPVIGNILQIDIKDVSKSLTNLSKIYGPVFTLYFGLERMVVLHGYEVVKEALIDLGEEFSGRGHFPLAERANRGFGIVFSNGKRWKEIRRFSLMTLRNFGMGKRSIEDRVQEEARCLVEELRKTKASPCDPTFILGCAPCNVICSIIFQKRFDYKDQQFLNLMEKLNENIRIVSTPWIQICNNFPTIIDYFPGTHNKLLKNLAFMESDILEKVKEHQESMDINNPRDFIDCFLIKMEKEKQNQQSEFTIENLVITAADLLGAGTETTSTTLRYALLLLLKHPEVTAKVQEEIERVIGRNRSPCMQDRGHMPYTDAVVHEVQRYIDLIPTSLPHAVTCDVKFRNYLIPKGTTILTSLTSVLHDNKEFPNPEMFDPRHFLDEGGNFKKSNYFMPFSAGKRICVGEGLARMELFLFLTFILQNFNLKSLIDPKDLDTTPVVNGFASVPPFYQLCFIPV

Cytochrome P450 2C9 = Cytochrome P450 2C9 (Homo sapiens, UniProt P11712); experiment: Inhibition of CYP2C9 in human liver microsomes
Cytochrome P450 2C9, sequence (P11712 whole entry): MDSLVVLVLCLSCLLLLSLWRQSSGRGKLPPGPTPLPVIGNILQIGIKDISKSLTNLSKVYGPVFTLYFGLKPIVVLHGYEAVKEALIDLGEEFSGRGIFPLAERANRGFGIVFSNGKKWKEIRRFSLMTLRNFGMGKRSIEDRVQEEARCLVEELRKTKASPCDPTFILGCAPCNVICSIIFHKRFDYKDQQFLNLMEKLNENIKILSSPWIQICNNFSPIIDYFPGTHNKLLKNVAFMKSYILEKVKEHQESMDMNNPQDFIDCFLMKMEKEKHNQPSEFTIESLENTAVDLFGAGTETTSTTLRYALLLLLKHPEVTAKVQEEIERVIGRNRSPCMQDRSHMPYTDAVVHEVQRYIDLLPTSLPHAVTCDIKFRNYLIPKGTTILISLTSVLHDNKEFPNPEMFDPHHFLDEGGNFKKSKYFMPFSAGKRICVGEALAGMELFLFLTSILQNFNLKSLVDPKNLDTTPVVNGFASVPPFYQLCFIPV

[23] = biological target: Mitogen-activated protein kinase 1 (Homo sapiens, UniProt P28482); experiment: Inhibition of ERK2 (unknown origin) measured after 2 hr by ADP-glo assay
Mitogen-activated protein kinase 1, sequence (P28482 whole entry): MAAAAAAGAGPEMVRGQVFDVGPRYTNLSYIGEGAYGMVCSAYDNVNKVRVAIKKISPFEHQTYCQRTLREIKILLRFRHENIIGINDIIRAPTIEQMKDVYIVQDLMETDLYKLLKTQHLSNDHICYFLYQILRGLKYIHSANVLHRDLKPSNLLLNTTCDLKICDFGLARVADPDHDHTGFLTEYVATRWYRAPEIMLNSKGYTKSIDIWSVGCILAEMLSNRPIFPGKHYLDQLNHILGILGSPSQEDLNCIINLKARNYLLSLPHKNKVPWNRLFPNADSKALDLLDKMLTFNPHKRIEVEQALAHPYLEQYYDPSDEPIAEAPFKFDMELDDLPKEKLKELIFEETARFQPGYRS

[24] = Homo sapiens, COLO 205, 72 h, read-out: IC50

Structure (SMILES): Cc1cnc(Nc2ccnn2C)nc1-c1cc2n(c1)C(=O)N([C@H](CO)c1cccc(Cl)c1)C2
IC50 [1]: 99.4 nM | IC50 (COLO 205 [2]; [24]): 44.6 nM | IC50 [3]: 64.3 nM | fraction unbound [4]: 0.016 | Cmax [5]: 219 ng/mL | Cmax [6]: 526 ng/mL | AUC(0-t) [7]: 2460 ng·h/mL | AUC(0-t) [8]: 726 ng·h/mL | AUC(0-t) [9]: 3270 ng·h/mL | half-life [10]: 126 min | half-life [11]: 192 min | clearance [12]: 12.2 mL/min/kg | clearance [13]: 25.3 mL/min/kg | clearance [14]: 10.5 mL/min/kg | bioavailability [15]: 90.8% | bioavailability [16]: 45.8% | bioavailability [17]: 101% | Cmax [18]: 5150 ng/mL | AUC at 336 h [19]: 21400 ng·h/mL | Cmax [20]: 9460 ng/mL | AUC at 336 h [21]: 30300 ng·h/mL | inhibition in vivo at 25 mg/kg (COLO 205 [22]): 112% | Kp at 336 h (in vivo): 1.42

IC50 (COLO 205 [2]; [24]): 81 nM
Structure (SMILES): C[C@@H](CO)Nc1ncc(Cl)c(-c2cc3n(c2)C(=O)N([C@H](CO)c2cccc(Cl)c2)C3)n1

IC50 (COLO 205 [2]; [24]): 293 nM
Structure (SMILES): Cc1cnc(Nc2ccnn2C)nc1-c1cc2n(c1)C(=O)N(Cc1ccc(F)c(F)c1)C2

IC50 (COLO 205 [2]; [24]): 31.9 nM | IC50 (Cytochrome P450 1A2): > 5 µM | IC50 (Cytochrome P450 2D6): 350 nM | IC50 (Cytochrome P450 3A4): > 5 µM | IC50 (Cytochrome P450 2C19): > 5 µM | IC50 (Cytochrome P450 2C9): > 5 µM
Structure (SMILES): Cn1nccc1Nc1ncc(Cl)c(-c2cc3n(c2)C(=O)N([C@H](CO)c2cccc(Cl)c2)C3)n1

IC50 (COLO 205 [2]; colo 205): Not Active
Structure (SMILES): C[C@H](CO)Nc1ncc(Cl)c(-c2cc3n(c2)C(=O)N([C@H](CO)c2cccc(Cl)c2)C3)n1

IC50 [23]: 201 nM | IC50 (COLO 205 [2]; [24]): > 10000 nM
Structure (SMILES): Cn1nccc1Nc1nccc(N2CC[C@H](C(=O)N[C@H](CO)c3cccc(Cl)c3)C2)n1

IC50 [23]: 9.5 nM | IC50 (COLO 205 [2]; [24]): 94.9 nM
Structure (SMILES): Cc1cnc(Nc2ccnn2C)nc1-c1cc2n(c1)C(=O)N([C@H](CO)c1ccc(F)c(Cl)c1)C2

IC50 [23]: 5.8 nM | IC50 (COLO 205 [2]; [24]): 104 nM
Structure (SMILES): O=C1N([C@H](CO)c2cccc(Cl)c2)Cc2cc(-c3nc(NC4CCOCC4)ncc3Cl)cn21

IC50 [23]: 237 nM | IC50 (COLO 205 [2]; colo 205): Not Active
Structure (SMILES): CC(C)Nc1cc(-c2cc3n(c2)C(=O)N([C@H](CO)c2cccc(Cl)c2)C3)c(Cl)cn1

IC50 [23]: 9.2 nM | IC50 (COLO 205 [2]; [24]): 856 nM
Structure (SMILES): Cc1cnc(Nc2ccnn2C)nc1-c1ccc2c(c1)CCN([C@H](CO)c1cccc(Cl)c1)C2=O

IC50 [23]: 2.4 nM | IC50 (COLO 205 [2]; [24]): 89.6 nM
Structure (SMILES): COc1cc(F)cc([C@@H](CO)N2Cc3cc(-c4nc(Nc5ccnn5C)ncc4C)cn3C2=O)c1

IC50 [23]: 4830 nM | IC50 (COLO 205 [2]; colo 205): Not Active
Structure (SMILES): Cc1cnc(Nc2ccnn2C)nc1-c1ccc2c(c1)CN([C@H](CO)c1cccc(Cl)c1)C2=O

Reference: ChEMBL document CHEMBL5046322, “Discovery of SHR2415, a Novel Pyrrole-Fused Urea Scaffold ERK1/2 Inhibitor” (ACS Med Chem Lett, 2022)
